Measured values reported in US6855730B2, “3-methylidenyl-2-indolinone modulators of protein kinase” (Sugen, Inc., priority 1998, dated 2005).

How the values were obtained:
[1] = molecular target: T1, chimeric receptor having the extra-cellular domain of EGF-R and the intra-cellular domain of Her2 (Homo sapiens, UniProt P04626); assay: EGF-induced Her2-driven BrdU incorporation; format: cell-based; conditions: read-out: BrdU HER 2 driven IC50
T1 construct: fused on or other part: the same chimera
Protocol: The cellular/catalytic assays described herein are performed in an ELISA format. The general procedure is as follows: a compound is introduced to cells expressing the test kinase, either naturally or recombinantly, for a selected period of time after which, if the test kinase is a receptor, a ligand known to activate the receptor is added. The cells are lysed and the lysate is transferred to the wells of an ELISA plate previously coated with a specific antibody recognizing the substrate of the enzymatic phosphorylation reaction. Non-substrate components of the cell lysate are washed away and the amount of phosphorylation on the substrate is detected with an antibody specifically recognizing phosphotyrosine compared with control cells that were not contacted with a test compound. The cellular/biologic assays described herein measure the amount of DNA made in response to activation of a test kinase, which is a general measure of a proliferative response. The general procedure for this assay is as follows: a compound is introduced to cells expressing the test kinase, either naturally or recombinantly, for a selected period of time after which, if the test kinase is a receptor, a ligand known to activate the receptor is added. After incubation at least overnight, a DNA labeling reagent such as Bromodeoxyuridine (BrdU) or 3H-thymidine is added. The amount of labeled DNA is detected with either an anti-BrdU antibody or by measuring radioactivity and is compared to control cells not contacted with a test compound.
EGF-Induced Her2-Driven BrdU Incorporation
Protocol • (1) Cells-are seeded at 8000 cells/well in DMEM, 10% CS, 2mM Gln in a 96-well plate. Cells are incubated overnight at 37° C. in 5% CO2. • (2) After 24 hours, the cells are washed with PBS, and then are serum starved in serum free medium (0% CS DMEM with 0.1% BSA) for 24 hours. • (3) On day 3, ligand (EGF=2 nM, prepared in DMEM with 0.1% BSA) and test compounds are added to the cells simultaneously. The negative control wells receive serum free DMEM with 0.1% BSA only, the positive control cells receive the ligand (EGF) but no test compound. Test compounds are prepared in serum free DMEM with ligand in a 96 well plate, and serially diluted for 7 test concentrations. • (4) After 20 hours of ligand activation, diluted BrdU labeling reagent (1:100 in DMEM, 0.1% BSA) is added and the cells are incubated with BrdU (final concentration=10 μM) for 1.5 hours. • (5) After incubation with labeling reagent, the medium is removed by decanting and tapping the inverted plate on a paper towel. FixDenat solution is added (50 μl/well) and the plates are incubated at room temperature for 45 minutes on a plate shaker. • (6) The FixDenat solution is thoroughly removed by decanting and tapping the inverted plate on a paper towel. Milk is added (5% dehydrated milk in PBS, 200 μ/well) as a blocking solution and the plate is incubated for 30 minutes at room temperature on a plate shaker. • (7) The blocking solution is removed by decanting and the wells are washed once with PBS. Anti-BrdU-POD solution (1:100 dilution in PBS, 1% BSA) is added (100 μl/well) and the plate is incubated for 90 minutes at room temperature on a plate shaker. • (8) The antibody conjugate is thoroughly removed by decanting and rinsing the wells 5 times with PBS, and the plate is dried by inverting and tapping on a paper towel. • (9) TMB substrate solution is added (100 μl/well) and incubated for 20 minutes at room temperature on a plate shaker until color development is sufficient for photometric detection. • (10) The absorbance of the samples are measured at 410 nm (in “dual wavelength” mode with a filter reading at 490 nm, as a reference wavelength) on a Dynatech ELISA plate reader.

A431 cells = assay: A431 growth assay (2% FBS); format: cell-based; conditions: Homo sapiens, A-431, read-out: A431 growth (2% FBS) IC50
[2] = molecular target: Myc-GyrB-FGFR fusion protein (Homo sapiens, UniProt P11362); assay: Biochemical FGFR assay (ELISA); conditions: read-out: bio fgfR1 IC50
flkGST = molecular target: T2, flkGST (Homo sapiens, UniProt P35968); assay: bio flkGST assay; format: biochemical
T2 construct: GST
T2 sequence (P35968 786-1356 limits assumed): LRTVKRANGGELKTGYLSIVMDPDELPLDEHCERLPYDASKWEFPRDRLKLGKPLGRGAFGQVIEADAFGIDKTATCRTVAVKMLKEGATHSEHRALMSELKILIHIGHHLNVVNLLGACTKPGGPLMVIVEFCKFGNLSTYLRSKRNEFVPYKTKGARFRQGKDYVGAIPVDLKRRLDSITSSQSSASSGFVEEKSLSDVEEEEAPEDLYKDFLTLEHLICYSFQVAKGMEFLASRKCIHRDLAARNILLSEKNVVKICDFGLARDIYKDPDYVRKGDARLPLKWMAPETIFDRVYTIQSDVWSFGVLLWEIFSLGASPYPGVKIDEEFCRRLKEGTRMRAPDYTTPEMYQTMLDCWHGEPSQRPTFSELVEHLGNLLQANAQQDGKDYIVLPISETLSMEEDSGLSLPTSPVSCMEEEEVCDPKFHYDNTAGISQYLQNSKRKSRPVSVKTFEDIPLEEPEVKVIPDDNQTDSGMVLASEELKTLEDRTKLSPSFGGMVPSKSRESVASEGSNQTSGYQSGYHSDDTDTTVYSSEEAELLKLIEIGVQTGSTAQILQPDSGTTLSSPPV

T1 sequence (P04626 676-1255 limits assumed, change not shown): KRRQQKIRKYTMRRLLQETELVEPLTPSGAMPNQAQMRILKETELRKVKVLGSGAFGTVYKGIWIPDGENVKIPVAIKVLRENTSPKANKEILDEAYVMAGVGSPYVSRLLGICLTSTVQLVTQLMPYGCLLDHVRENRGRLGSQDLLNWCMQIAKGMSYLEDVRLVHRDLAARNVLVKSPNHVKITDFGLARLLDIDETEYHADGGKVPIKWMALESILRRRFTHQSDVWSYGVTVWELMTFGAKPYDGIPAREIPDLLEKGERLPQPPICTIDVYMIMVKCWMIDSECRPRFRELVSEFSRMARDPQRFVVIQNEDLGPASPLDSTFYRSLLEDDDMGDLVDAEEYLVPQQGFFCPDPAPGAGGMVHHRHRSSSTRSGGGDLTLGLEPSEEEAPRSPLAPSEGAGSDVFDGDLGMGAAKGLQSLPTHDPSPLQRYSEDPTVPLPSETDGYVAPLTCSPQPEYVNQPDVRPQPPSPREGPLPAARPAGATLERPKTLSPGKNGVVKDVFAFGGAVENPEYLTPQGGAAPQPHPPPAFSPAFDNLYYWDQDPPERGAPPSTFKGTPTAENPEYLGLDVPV
Sequence of Myc-GyrB-FGFR fusion protein (P11362 478-767 limits assumed): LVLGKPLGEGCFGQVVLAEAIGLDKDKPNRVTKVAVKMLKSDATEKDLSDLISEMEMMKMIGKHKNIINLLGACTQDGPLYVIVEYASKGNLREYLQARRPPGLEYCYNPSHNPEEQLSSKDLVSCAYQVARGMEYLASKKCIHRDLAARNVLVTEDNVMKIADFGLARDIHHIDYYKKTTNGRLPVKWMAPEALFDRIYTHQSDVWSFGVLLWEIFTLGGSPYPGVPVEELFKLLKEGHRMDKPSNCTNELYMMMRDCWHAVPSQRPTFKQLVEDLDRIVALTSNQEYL

Compound `COc1ccc(C=C2C(=O)Nc3cc(NC(C)=O)ccc32)cc1-c1cccc(NC(C)=O)c1` (mixture of isomers) [Example 63, N-[3-(3′-Acetylamino-6-methoxybiphenyl-3-ylmethylene)-2-oxo-2,3-dihydro-1H-indol-6-yl]-acetamide] has an IC50 [1] of 20.4 µM and an IC50 (A431 cells) of 11 µM.

Work on `CC1(C)CCc2cc(C=C3C(=O)Nc4ccc(Br)cc43)ccc2O1` (racemic) [Example 34, 5-Bromo-3-(2,2-dimethylchroman-6-ylmethylene)-1,3-dihydroindol-2-one] yielded an IC50 [1] of 3.5 µM and an IC50 (A431 cells) of 4.4 µM.

`COc1c(C(C)C)cc(/C=C2/C(=O)Nc3cc(NC(C)=O)ccc32)cc1C(C)C` [Example 3, N-[3-(3,5-Diisopropyl-4-methoxybenzylidene)-2-oxo-2,3-dihydro-1H-indol-6-yl]-acetamide] showed an IC50 [1] of 9.1 µM and an IC50 (A431 cells) of 2.2 µM.

For `COc1c(C(C)C)cc(/C=C2/C(=O)Nc3cc(O)ccc32)cc1C(C)C` [Example 4, 3-(3,5-Diisopropyl-4-methoxybenzylidene)-6-hydroxy-1,3-dihydroindol-2-one], the IC50 [1] was 4.4 µM and the IC50 (A431 cells) was 5.1 µM.

For `COc1c(C(C)C)cc(/C=C2/C(=O)Nc3ccc(C(C)=O)cc32)cc1C(C)C` [Example 5, 5-Acetyl-3-(3,5-diisopropyl-4-methoxybenzylidene)-1,3dihydroindol-2-one], the IC50 [1] was 10.5 µM and the IC50 (A431 cells) was 4.3 µM.

With `COC(=O)c1ccc2c(c1)/C(=C\c1cc(C(C)C)c(OC)c(C(C)C)c1)C(=O)N2` [Example 6, 3-(3,5-Diisopropyl-4-methoxybenzylidene)-2-oxo-2,3-dihydro-1H-indole-5-carboxylic acid methyl ester] the IC50 [1] was 4.7 µM and the IC50 (A431 cells) was 2.9 µM.

With `COc1ccc(/C=C2/C(=O)Nc3ccccc32)cc1C(C)C` [Example 7, 3-(3-Isopropyl-4-methoxybenzylidene)-1,3-dihydroindol-2-one] the IC50 [1] was 16.5 µM and the IC50 (A431 cells) was 1.2 µM.

With `COc1cc(C)c(C=C2C(=O)Nc3ccccc32)cc1C(C)C` [Example 8, 3-(5-Isopropyl-4-methoxy-2-methylbenzylidene)-1,3-dihydroindol-2-one] the IC50 [1] was 33.4 µM and the IC50 (A431 cells) was 0.95 µM.

In the case of `COc1cc(C)c(C=C2C(=O)Nc3ccc(Cl)cc32)cc1C(C)C` [Example 9, 5-Chloro-3-(5-isopropyl-4-methoxy-2-methylbenzylidene)-1,3-dihydroindol-2-one], the IC50 [1] is reported as 4.5 µM and the IC50 (A431 cells) is reported as 17.3 µM.

Compound `COc1ccc(/C=C2/C(=O)Nc3ccccc32)cc1C1CCCC1` [Example 10, 3-(3-Cyclopentyl-4-methoxybenzylidene)-1,3-dihydroindol-2-one] has an IC50 [1] of 14.1 µM and an IC50 (A431 cells) of 8.5 µM.

`COc1ccc(/C=C2/C(=O)Nc3ccccc32)cc1C1CCCCC1` [Example 12, 3-(3-Cyclohexyl-4-methoxybenzylidene)-1,3-dihydroindol-2-one] was tested, and the IC50 [1] was 31.9 µM and the IC50 (A431 cells) was 7.9 µM.

For `COc1ccc(/C=C2/C(=O)Nc3ccc(Br)cc32)cc1-c1ccccc1` [Example 13, 5-Bromo-3-(6-methoxybiphenyl-3-ylmethylene)-1,3-dihydroindol-2-one], the IC50 [1] was 9 µM and the IC50 (A431 cells) was 9 µM.

`CC1(C)CCc2cc(/C=C3/C(=O)Nc4ccc(Cl)cc43)ccc2O1` [Example 15, 5-Chloro-3-(2,2-dimethyl-chroman-6-ylmethylene)-1,3-dihydroindol-2-one] was tested, and the IC50 [1] was 4.4 µM and the IC50 (A431 cells) was 4.8 µM.

With `CC(=O)Nc1ccc2c(c1)NC(=O)/C2=C/c1ccc(OCCN2CCOCC2)c(C2CCCCC2)c1` [Example 16, N-{3-[3-Cyclohexyl-4-(2-morpholin-4-ylethoxy)-benzylidene]-2-oxo-2,3-dihydro-1H-indol-6-yl}-acetamide] the IC50 [1] was 4.2 µM and the IC50 (A431 cells) was 4.1 µM.

`COc1ccc2c(c1)/C(=C\c1cc(C(C)C)c(OC)c(C(C)C)c1)C(=O)N2` [Example 17, 3-(3,5-Diisopropyl-4-methoxybenzylidene)-5-methoxy-1,3-dihydroindol-2-one] showed an IC50 [1] of 5.5 µM and an IC50 (A431 cells) of 4.3 µM.

For `COc1ccc(/C=C2/C(=O)Nc3cc(NC(C)=O)ccc32)cc1-c1ccsc1` [Example 18, N-[3-(4-Methoxy-3-thiophene-3-ylbenzylidene)-2-oxo-2,3-dihydro-1H-indol-6-yl]-acetamide], the IC50 [1] was > 50 µM and the IC50 (A431 cells) was 0.6 µM.

`COc1c(C(C)C)cc(/C=C2/C(=O)Nc3ccc(C)cc32)cc1C(C)C` [Example 19, 3-(3,5-Diisopropyl-4-methoxybenzylidene)-5-methyl-1,3-dihydroindol-2-one] was tested, and the IC50 [1] was 3.3 µM and the IC50 (A431 cells) was 4.3 µM.

`COc1c(C(C)C)cc(/C=C2/C(=O)Nc3ccc(N)cc32)cc1C(C)C` [Example 20, 5-Amino-3-(3,5-diisopropyl-4-methoxy-benzylidene)-1,3-dihydroindol-2-one] was tested, and the IC50 [1] was 15.7 µM and the IC50 (A431 cells) was 29.5 µM.

Work on `CC(=O)Nc1ccc2c(c1)NC(=O)/C2=C\c1ccc2c(c1)CCC(C)(C)O2` [Example 33, N-[3-(2,2-Dimethylchroman-6-ylmethylene)-2-oxo-2,3-dihydro-1H-indol-6-yl]-acetamide] yielded an IC50 (A431 cells) of 6.7 µM.

`CC(=O)Nc1ccc2c(c1)NC(=O)/C2=C/c1ccc(OCCN2CCOCC2)c(-c2ccsc2)c1` [Example 50, N-{3-[4-(2-Morpholin-4-ylethoxy)-3-thiophen-3-ylbenzylidene]-2-oxo-2,3-dihydro-1H-indol-6-yl}-acetamide] showed an IC50 [1] of 31.1 µM.

`Cc1cc(CCC(=O)O)c(/C=C2\C(=O)Nc3cc(-c4ccc(F)cc4)ccc32)[nH]1` [Example 107, 3-{2-[6-(4-Fluorophenyl)-2-oxo-1,2-dihydroindol-3-ylidenemethyl]-5-methyl-1H-pyrrol-3-yl}propionic acid] was tested, and the IC50 [2] was 6.16 µM and the IC50 (flkGST) was 2.15 µM.

`CCOC(=O)c1c(C)[nH]c(/C=C2\C(=O)Nc3cc(-c4ccc(F)cc4)ccc32)c1CCC(=O)O` [Example 108, 4-(2-Carboxyethyl)-5-[6-(4-fluorophenyl)-2-oxo-1,2-dihydro-indol-3-ylidenemethyl]-2-methyl-1H-pyrrole-3-carboxylic acid ethyl ester] gave an IC50 [2] of 2.57 µM and an IC50 (flkGST) of 1.08 µM.

`COc1ccccc1-c1ccc2c(c1)NC(=O)/C2=C\c1[nH]c(C)cc1CCC(=O)O` [Example 109, 3-{2-[6-(2-Methoxyphenyl)-2-oxo-1,2-dihydroindol-3-ylidenemethyl]-5-methyl-1H-pyrrol-3-yl}-propionic acid] was tested, and the IC50 [2] was > 20 µM and the IC50 (flkGST) was 2.68 µM.

In the case of `CCOC(=O)c1c(C)[nH]c(/C=C2\C(=O)Nc3cc(-c4ccccc4OC)ccc32)c1CCC(=O)O` [Example 110, 4-(2-Carboxyethyl)-5-[6-(2-methoxyphenyl)-2-oxo-1,2-dihydro-indol-3-ylidenemethyl]-2-methyl-1H-pyrrol-3-yl-carboxylic acid ethyl ester], the IC50 [2] is reported as 17.5 µM and the IC50 (flkGST) is reported as 3.05 µM.

With `Cc1cc(CCC(=O)O)c(/C=C2\C(=O)Nc3ccc(Cl)cc32)[nH]1` [Example 111, 3-[2-(5-Chloro-2-oxo-1,2-dihydroindol-3-ylidenemethyl)-5-methyl-1H-pyrrol-3-yl]propionic acid] the IC50 [2] was 0.47 µM and the IC50 (flkGST) was 0.43 µM.

`O=C1Nc2ccc(Br)cc2/C1=C/c1cc2ccccc2[nH]1` [Example 165, 5-Bromo-3-(1H-indol-2-ylmethylene)-1,3-dihydro-indol-2-one] was tested, and the IC50 [2] was > 20 µM.

`Cc1cccc2c1/C(=C/c1cc3ccccc3[nH]1)C(=O)N2` [Example 166, 3-(1H-indol-2-ylmethylene)-4-methyl-1,3-dihydro-indol-2-one] was tested, and the IC50 [2] was > 20 µM.
